Measured values reported in US10792289B2 (Horizon Orphan LLC, priority 2009, dated 2020).

System: P. aeruginosa
Assay: Phase 2 study: P. aeruginosa density in sputum
Format: in vivo, Pseudomonas aeruginosa
Conditions: EE; for Reduction in P. aeruginosa density in sputum: median Day 1 to Day 28
Description: The following dosage regimens (as nebulizer loaded doses) were evaluated: 120 mg QD (daily); 240 mg QD (daily); and 240 mg BID (twice daily).
Patients were assessed on Day 1, 7, 14, and 28, and then up to 28 days after completion of study drug, namely, Days 42 and 56. The end of the study was defined as the last visit of the last patient.
Efficacy was evaluated by microbiologic assessment of sputum samples, time to need for anti-pseudomonal antimicrobials, the Cystic Fibrosis Questionaire-Revised (CFQ-R), and pulmonary function tests. […] Pair-wise comparisons between all the treatment arms were conducted as secondary analyses.

[1] = combined 240 mg QD and BID, Baseline to Day 7
[2] = combined 240 mg QD and BID, Baseline to Day 14
[3] = combined 240 mg QD and BID, Baseline to Day 28
[4] = combined 240 mg QD and BID, Day 1
[5] = combined 240 mg QD and BID, Day 7
[6] = combined 240 mg QD and BID, Day 14
[7] = combined 240 mg QD and BID, Day 28

## C[C@H]1COc2c(N3CCN(C)CC3)c(F)cc3c(=O)c(C(=O)O)cn1c23 [Levofloxacin, levofloxacin]
120 mg QD, Baseline to Day 7
  Change in P. aeruginosa density, mean (SD): −0.76 (1.263) log10 CFU sputum
  Change in P. aeruginosa density, median: −0.58 log10 CFU sputum
120 mg QD, Baseline to Day 14
  Change in P. aeruginosa density, mean (SD): −0.10 (1.240) log10 CFU sputum
  Change in P. aeruginosa density, median: 0.00 log10 CFU sputum
120 mg QD, Baseline to Day 28
  Change in P. aeruginosa density, mean (SD): −0.31 (1.050) log10 CFU sputum
  Change in P. aeruginosa density, median: −0.20 log10 CFU sputum
120 mg QD, Day 1
  P. aeruginosa density, median: 8.17 log10 CFU sputum
120 mg QD, Day 7
  P. aeruginosa density, mean (SD): 6.64 (1.818) log10 CFU sputum
  P. aeruginosa density, median: 6.86 log10 CFU sputum
120 mg QD, Day 14
  P. aeruginosa density, mean (SD): 7.32 (1.643) log10 CFU sputum
  P. aeruginosa density, median: 8.00 log10 CFU sputum
120 mg QD, Day 28
  P. aeruginosa density, mean (SD): 7.25 (1.431) log10 CFU sputum
  P. aeruginosa density, median: 7.78 log10 CFU sputum
120 mg QD
  Reduction in P. aeruginosa density in sputum: approximately 59%
240 mg BID, Baseline to Day 7
  Change in P. aeruginosa density, mean (SD): −1.03 (1.921) log10 CFU sputum
  Change in P. aeruginosa density, median: −0.88 log10 CFU sputum
240 mg BID, Baseline to Day 14
  Change in P. aeruginosa density, mean (SD): −0.83 (1.901) log10 CFU sputum
  Change in P. aeruginosa density, median: −0.91 log10 CFU sputum
240 mg BID, Baseline to Day 28
  Change in P. aeruginosa density, mean (SD): −0.74 (1.488) log10 CFU sputum
  Change in P. aeruginosa density, median: −0.68 log10 CFU sputum
240 mg BID, Day 1
  P. aeruginosa density, mean (SD): 7.26 (1.433) log10 CFU sputum
  P. aeruginosa density, median: 7.84 log10 CFU sputum
240 mg BID, Day 7
  P. aeruginosa density, mean (SD): 6.23 (1.850) log10 CFU sputum
  P. aeruginosa density, median: 6.52 log10 CFU sputum
240 mg BID, Day 14
  P. aeruginosa density, mean (SD): 6.43 (1.725) log10 CFU sputum
  P. aeruginosa density, median: 6.81 log10 CFU sputum
240 mg BID, Day 28
  P. aeruginosa density, mean (SD): 6.65 (1.440) log10 CFU sputum
  P. aeruginosa density, median: 6.40 log10 CFU sputum
240 mg BID
  Reduction in P. aeruginosa density in sputum: approximately 96%
240 mg QD, Baseline to Day 7
  Change in P. aeruginosa density, mean (SD): −0.25 (1.789) log10 CFU sputum
  Change in P. aeruginosa density, median: −0.18 log10 CFU sputum
240 mg QD, Baseline to Day 14
  Change in P. aeruginosa density, mean (SD): −0.47 (1.905) log10 CFU sputum
  Change in P. aeruginosa density, median: −0.11 log10 CFU sputum
240 mg QD, Baseline to Day 28
  Change in P. aeruginosa density, mean (SD): −0.38 (1.780) log10 CFU sputum
  Change in P. aeruginosa density, median: −0.52 log10 CFU sputum
240 mg QD, Day 1
  P. aeruginosa density, mean (SD): 7.16 (1.597) log10 CFU sputum
  P. aeruginosa density, median: 7.97 log10 CFU sputum
240 mg QD, Day 7
  P. aeruginosa density, mean (SD): 6.94 (1.783) log10 CFU sputum
  P. aeruginosa density, median: 7.15 log10 CFU sputum
240 mg QD, Day 14
  P. aeruginosa density, mean (SD): 6.69 (1.628) log10 CFU sputum
  P. aeruginosa density, median: 6.46 log10 CFU sputum
240 mg QD, Day 28
  P. aeruginosa density, mean (SD): 6.78 (1.896) log10 CFU sputum
  P. aeruginosa density, median: 7.38 log10 CFU sputum
240 mg QD
  Reduction in P. aeruginosa density in sputum: approximately 74%
Day 7
  Largest difference in P. aeruginosa density, placebo vs levofloxacin: 1.62 log10 CFU/g sputum
Day 14
  Largest difference in P. aeruginosa density, placebo vs levofloxacin: 1.39 log10 CFU/g sputum
Day 28
  Largest difference in P. aeruginosa density, placebo vs levofloxacin: 1.88 log10 CFU/g sputum
[1]
  Change in P. aeruginosa density, mean (SD): −0.64 (1.833) log10 CFU sputum
  Change in P. aeruginosa density, median: −0.37 log10 CFU sputum
[2]
  Change in P. aeruginosa density, mean (SD): −0.65 (1.898) log10 CFU sputum
  Change in P. aeruginosa density, median: −0.46 log10 CFU sputum
[3]
  Change in P. aeruginosa density, mean (SD): −0.55 (1.645) log10 CFU sputum
  Change in P. aeruginosa density, median: −0.58 log10 CFU sputum
[4]
  P. aeruginosa density, mean (SD): 7.21 (1.508) log10 CFU sputum
  P. aeruginosa density, median: 7.90 log10 CFU sputum
[5]
  P. aeruginosa density, mean (SD): 6.59 (1.838) log10 CFU sputum
  P. aeruginosa density, median: 6.77 log10 CFU sputum
[6]
  P. aeruginosa density, mean (SD): 6.56 (1.669) log10 CFU sputum
  P. aeruginosa density, median: 6.78 log10 CFU sputum
[7]
  P. aeruginosa density, mean (SD): 6.72 (1.683) log10 CFU sputum
  P. aeruginosa density, median: 6.90 log10 CFU sputum
